# Experimental data taken from patent EP4353225A1, “NUTRACEUTICAL OR PHARMACEUTICAL COMPOSITION FOR THE TREATMENT OF PELVIC PAIN” (Erbozeta S.p.A., priority 2022, dated 2024).
# Columns and labels:
# IL-6 = experiment: ELISA of IL-6 in T24 bladder urothelium cells exposed to THP-1 conditioned media; format: cell-based, human; details: T24 cells 4 h
# Procedure: (§1) Based on the results of the cytotoxicity experiments, the medium conditioned on THP-1 to be used to study the possible anti-inflammatory activity on the bladder urothelium was obtained by exposing for 2 h the differentiated THP-1 cells to the concentrations of the three functional ingredients and the MIX corresponding to 600, 400, 200, 100, 50 and 25 µg/mL for the MICRONIZED PEA, 15, 10, 5, 2.5, 1.25, 0.625 µg/mL for the DRY MARITIME PINE EXTRACT, 75, 50, 25, 12.5, 6.25, 3.125 µg/mL for HEMP OIL and 690, 460, 230, 115, 57.5 and 28.75 µg/mL for the MIX, respectively. At the end of this incubation, the cells were treated for a further 6 h with the inflammatory stimulus E. coli in the presence of the different treatments. Cells exposed only with the inflammatory stimulus in the absence of pre-treatment were used as a positive control of inflammation.
# (§2) The specific anti-inflammatory activity on the bladder urothelium of the three functional ingredients and the MIX was evaluated on an in vitro bladder urothelium epithelium composed of the T24 cell line (ATCC HTB-4TM). T24 cells were exposed for 4 h to conditioned media obtained by treating THP-1 cells differentiated into macrophages with different concentrations of the functional ingredients and MIX, and in the presence of E. coli. At the end of treatment, T24 cells were detached with trypsin, centrifuged, and lysed by sonication in lysis buffer. The supernatant obtained following centrifugation at 10,000 g for 10 min at 4 °C was stored at -80 °C. An extended analysis of the impact of functional ingredients and MIX on inflammation was performed using an assay for the determination of the transcription factor Nf-kB (Abcam) and the evaluation of the expression of pro-inflammatory cytokines with an array of 23 human cytokines (Raybiotech), following the manufacturer's instructions. The cytokines interleukin 1β (IL-1β), interleukin 6 (IL-6), and interleukin 8 (IL-8) were quantified by ELISA assay.
# (§3) The results are reported expressed as fold change, calculated as the ratio between the values obtained from the respective treatments on the control of inflammation. As such, the fold change is adimensional.
# [1] = test system: transcription factor Nf-kB; experiment: Nuclear levels of transcription factor Nf-kB in T24 bladder urothelium cells exposed to THP-1 conditioned media; format: cell-based, human; details: T24 cells 4 h
# Procedure: as §1, §2, §3
# IL-1β = experiment: ELISA of IL-1β in T24 bladder urothelium cells exposed to THP-1 conditioned media; format: cell-based, human; details: T24 cells 4 h
# Procedure: as §1, §2, §3
# IL-8 = experiment: ELISA of IL-8 in T24 bladder urothelium cells exposed to THP-1 conditioned media; format: cell-based, human; details: T24 cells 4 h
# Procedure: as §1, §2, §3
# GRO a/b/g = experiment: Cytokine array (23 human cytokines) in T24 bladder urothelium cells exposed to THP-1 conditioned media: GRO a/b/g; format: cell-based; details: T24 cells 4 h
# Procedure: as §1, §2, §3
# GM-CSF = experiment: Cytokine array (23 human cytokines) in T24 bladder urothelium cells exposed to THP-1 conditioned media: GM-CSF; format: cell-based; details: T24 cells 4 h
# Procedure: as §1, §2, §3
# GRO alpha = experiment: Cytokine array (23 human cytokines) in T24 bladder urothelium cells exposed to THP-1 conditioned media: GRO alpha; format: cell-based; details: T24 cells 4 h
# Procedure: as §1, §2, §3
# [2] = test system: THP-1 differentiated into macrophages; experiment: Cytotoxicity / cell viability of differentiated THP-1 in the presence of E. coli (ATP assay); format: cell-based; details: 2 h pre-treatment + 6 h E. coli
# Procedure: Human THP-1 monocytes (ATCC® TIB-202TM) were maintained in THP-1 complete medium (THP-1 CCM) and cultured in a controlled atmosphere at 37 °C. Differentiation into macrophages was induced by incubation with phorbol myristate acetate (PMA) for 24 h. The culture medium was then replaced and the cells left with fresh medium for another 24 h before being exposed to the three functional ingredients, their MIX and the inflammatory stimulus, E. coli.
# The cytotoxicity of the three functional ingredients and their MIX was evaluated on a THP-1 immune system model differentiated into macrophages. Based on the method of intake of the formulation, a digestion volume of 2 liters was considered in order to mimic as much as possible the physiological condition of the average volume of liquid contained in the stomach during the digestive process. Cytotoxicity was carried out by constructing a dose-response curve at increasing concentrations of the individual functional ingredients and the MIX in order to identify the maximum concentration usable for subsequent tests. The following concentrations were therefore tested on THP-1: from 50 µg/mL to 600 µg/mL for PEA, from 1.25 µg/mL to 15 µg/mL for DRY MARITIME PINE EXTRACT, from 6.25 µg/mL to 75 µg/mL for HEMP OIL and from 57.5 µg/mL to 690 µg/mL for the MIX. Based on the results of the dose-response curves, cell viability analysis was not performed at higher concentrations due to mortality caused by the mixture at the highest concentration tested. The concentrations used for subsequent experiments were selected in this concentration range. The three functional ingredients and the MIX were dissolved in THP-1 CCM in the absence of antibiotic and in the presence of 1.18 mg/mL of bile as surfactant. The suspensions were incubated under stirring overnight to increase the passage of the functional ingredients into solution and, the following day, the THP-1 cells were washed with Hank's Balanced Salt Solution (HBSS) and pre-treated for 2 h with the different concentrations of the individual functional ingredients and the MIX. At the end of this incubation, the pro-inflammatory stimulus E. coli (1 × 10^6 CFU/mL) was added to the treated cells for a further 6 h. Cells treated only with E. coli were used as a negative control, while cells treated with 10 µM staurosporine were used as a positive cell death control. At the end of the 8 h of treatment, cell viability was assessed by ATP assay (PerkinElmer) to avoid any possible interference from the bacteria present that may occur using other tests such as MTS.
# [3] = Condition 1: MICRONIZED PEA 600, MARITIME PINE EXTRACT 15, HEMP OIL 75, MIX 690 µg/mL (1200, 30, 150, 1380 mg)
# [4] = Condition 2: MICRONIZED PEA 400, MARITIME PINE EXTRACT 10, HEMP OIL 50, MIX 460 µg/mL (800, 20, 100, 920 mg)
# [5] = Condition 3: MICRONIZED PEA 200, MARITIME PINE EXTRACT 5, HEMP OIL 25, MIX 230 µg/mL (400, 10, 50, 460 mg)
# [6] = Condition 4: MICRONIZED PEA 100, MARITIME PINE EXTRACT 2.5, HEMP OIL 12.5, MIX 115 µg/mL (200, 5, 25, 230 mg)
# [7] = Condition 5: MICRONIZED PEA 50, MARITIME PINE EXTRACT 1.25, HEMP OIL 6.25, MIX 57.5 µg/mL (100, 2.5, 12.5, 115 mg)
# [8] = Condition 6: MICRONIZED PEA 25, MARITIME PINE EXTRACT 0.625, HEMP OIL 3.125, MIX 28.75 µg/mL (50, 1.25, 6.25, 57.5 mg)
structure (smiles),measurement,setting,value
"CCCCCCCCCCCCCCCC(=O)NCCO [MICRONIZED PEA, palmitoylethanolamide]",IL-6 (Fold change vs Control) Average,IL-6; [3],0.48 Fold change
same,IL-6 (Fold change vs Control) Average,IL-6; [4],0.34 Fold change
same,IL-6 (Fold change vs Control) Average,IL-6; [5],0.34 Fold change
same,IL-6 (Fold change vs Control) Average,IL-6; [6],0.33 Fold change
same,IL-6 (Fold change vs Control) Average,IL-6; [7],0.38 Fold change
same,IL-6 (Fold change vs Control) Average,IL-6; [8],0.45 Fold change
same,Nf-kB (Fold change vs Control) Average,[1]; [3],2.89 Fold change
same,Nf-kB (Fold change vs Control) Average,[1]; [4],6.16 Fold change
same,Nf-kB (Fold change vs Control) Average,[1]; [5],0.12 Fold change
same,Nf-kB (Fold change vs Control) Average,[1]; [6],0.75 Fold change
same,Nf-kB (Fold change vs Control) Average,[1]; [7],0.57 Fold change
same,Nf-kB (Fold change vs Control) Average,[1]; [8],0.43 Fold change
same,Nf-kB levels (nuclear translocation),"[1]; result in words, over the concentrations tested",reduces the nuclear translocation of the transcription factor NF-κB starting from 25 µg/mL (50 mg) up to 200 µg/mL (400 mg)
same,IL-1β (Fold change vs Control) Average,IL-1β; [3],0.14 Fold change
same,IL-1β (Fold change vs Control) Average,IL-1β; [4],0.25 Fold change
same,IL-1β (Fold change vs Control) Average,IL-1β; [5],0.15 Fold change
same,IL-1β (Fold change vs Control) Average,IL-1β; [6],0.25 Fold change
same,IL-1β (Fold change vs Control) Average,IL-1β; [7],0.30 Fold change
same,IL-1β (Fold change vs Control) Average,IL-1β; [8],0.30 Fold change
same,IL-8 (Fold change vs Control) Average,IL-8; [3],0.55 Fold change
same,IL-8 (Fold change vs Control) Average,IL-8; [4],0.49 Fold change
same,IL-8 (Fold change vs Control) Average,IL-8; [5],0.51 Fold change
same,IL-8 (Fold change vs Control) Average,IL-8; [6],0.54 Fold change
same,IL-8 (Fold change vs Control) Average,IL-8; [7],0.68 Fold change
same,IL-8 (Fold change vs Control) Average,IL-8; [8],0.69 Fold change
same,GRO a/b/g (Fold change vs Control) Average,GRO a/b/g; [3],1.14 Fold change
same,GRO a/b/g (Fold change vs Control) Average,GRO a/b/g; [4],0.92 Fold change
same,GRO a/b/g (Fold change vs Control) Average,GRO a/b/g; [5],0.81 Fold change
same,GRO a/b/g (Fold change vs Control) Average,GRO a/b/g; [6],0.58 Fold change
same,GRO a/b/g (Fold change vs Control) Average,GRO a/b/g; [7],1 Fold change
same,GRO a/b/g (Fold change vs Control) Average,GRO a/b/g; [8],1.13 Fold change
same,GM-CSF fold change vs control,GM-CSF; [3],1.01 Fold change
same,GM-CSF fold change vs control,GM-CSF; [4],1.1 Fold change
same,GM-CSF fold change vs control,GM-CSF; [5],0.9 Fold change
same,GM-CSF fold change vs control,GM-CSF; [6],0.21 Fold change
same,GM-CSF fold change vs control,GM-CSF; [7],1.15 Fold change
same,GM-CSF fold change vs control,GM-CSF; [8],1.19 Fold change
same,GRO alpha (Fold change vs Control) Average,GRO alpha; [3],1.49 Fold change
same,GRO alpha (Fold change vs Control) Average,GRO alpha; [4],0.79 Fold change
same,GRO alpha (Fold change vs Control) Average,GRO alpha; [5],1.28 Fold change
same,GRO alpha (Fold change vs Control) Average,GRO alpha; [6],1.23 Fold change
same,GRO alpha (Fold change vs Control) Average,GRO alpha; [7],0.91 Fold change
same,GRO alpha (Fold change vs Control) Average,GRO alpha; [8],1.17 Fold change
same,Viability,[2]; MICRONIZED PEA 50 µg/mL (100 mg),73.2 ± 9.5%
same,Viability,[2]; MICRONIZED PEA 100 µg/mL (200 mg),106.5 ± 5.6%
same,Viability,[2]; MICRONIZED PEA 300 µg/mL (600 mg),86.5 ± 5.9%
same,Viability,[2]; MICRONIZED PEA 500 µg/mL (1000 mg),71.9 ± 1.3%
same,Viability,[2]; MICRONIZED PEA 600 µg/mL (1200 mg),73.9 ± 19.5%
